# Measurements as given in patent US11969436B2, “Method for treating skin irritation caused by parabens” (Kao Corporation, priority 2017, dated 2024).
# Experiments:
# [1] = tested on: skin of subjects with sensitive skin; assay: Stinging test A, sensory irritation on the cheek of subjects with sensitive skin; assay type: in vivo, human; settings: nonwoven fabric with 600 μL of 16.4 mM aqueous solution on the cheek, 30 seconds to 5 minutes; FIG. 2
# Protocol: Those who met all of the following criteria were selected as subjects with sensitive skin.
# The subjects selected were tested for Stinging test A according to the following method.
# After washing face with a make-up remover and a face wash, conditioning was performed in an environment of a temperature of 23° C. and a humidity of 50% for 5 minutes or more. A 2 cm×5 cm piece of nonwoven fabric which was impregnated with 600 μL of a 16.4 mM aqueous solution of methyl p-hydroxybenzoate or p-hydroxybenzoic acid was contacted to the cheek. For sensory irritation that the subjects felt (sore, stinging, pricking, smart, hot, flushed) 30 seconds, 1 minute, 2 minutes, 3 minutes, and 5 minutes after the start of the contact, the subjects submitted scores (0: nothing felt, 0.5: slightly felt or slight discomfort, 1.0: a little discomfort, 1.5: a little to moderate discomfort, 2.0: moderate discomfort, 2.5: moderate to much discomfort, 3.0: much or unbearable discomfort). A value obtained by subtracting, from the highest score of all the scores after 30 seconds to 5 minutes, the highest score in a test performed in the same manner as above except for using distilled water was determined as the sensory irritation score, and the sensory irritation score was statistically analyzed by the Nilcoxon signed-rank test.
# [2] = tested on: three-dimensional cultured human epidermis model; assay: IL-1α production in three-dimensional cultured human epidermis model (LabCyte EPI-MODEL 24); assay type: cell-based; settings: 50 μL of 16.4 mM aqueous solution, cultured 6 hours, post-cultured 18 hours; FIG. 1
# Protocol: LabCyte EPI-MODEL 24 (made by Japan Tissue Engineering Co., Ltd.) was used as a three-dimensional cultured human epidermis model. The culture insert was pre-cultured (5% CO2, 37° C.) in a 500 μL exclusive assay medium overnight, and the culture insert was transferred to a 24-well plate containing a fresh assay medium. 50 μL of a 16.4 mM aqueous solution of methyl p-hydroxybenzoate (MP) or p-hydroxybenzoic acid (PHBA) was added to the epidermal tissue in the culture insert, and the tissue was cultured for 6 hours. Then the culture insert was washed with phosphate buffer 10 times, and transferred to a 24-well plate containing a fresh assay medium, and post-cultured for 18 hours. After the post-culture, the amount of IL-1α in the medium was determined using Human IL-1 alpha/IL-1F1 Quantikine ELISA Kit (R&D Systems) according to the protocol attached.
# CES1 = CES1 mRNA expression in normal human epidermal keratinocytes (real-time PCR, ΔΔ CT method); assay type: cell-based; settings: 48 hours; for Relative gene expression level (with non treat as 1.0): CES1 mRNA, mean value ± SD, n = 3
# Protocol: Normal human epidermal keratinocytes (Life Technologies Japan Ltd.) were seeded into a 6-well plate so that the number of cells in each well was […], and cultured in HuMedia-KG2 (KURABO INDUSTRIES LTD.) overnight. Then, an extract of broccoli sprouts (Broccoli Sprout Extract, Oryza Oil (. Fat Chemical Co., Ltd., for cosmetics) was added to the culture medium at a solid concentration of 0.0001 w/v % or 0.001 w/v %, and the cells were cultured for 48 hours. The ceils after culture was washed with D-PB3 (−) and RNA was extracted using RNeasy Mini Kits (QIAGEN) according to the manual attached. The RNA concentration was calculated by using NanoDrop 1000 (Thermo Fisher Scientific). Total RNA extracted was reverse-transcribed using High-Capacity RNA-to-cDNA Kit (Life Technologies Japan Ltd.), and then real-time PCR was performed using 7500 Fast Real-Time PCR System (Life Technologies Japan Ltd.). In the real-time PCR, the expression levels of CES1 mRNA were compared by the ΔΔ CT method using the above reverse transcribed cDNA and CES1, or, as an endogenous control, Tsqman primer for RPLP0 (Life Technologies Japan Ltd., CES1:Hs00275627-m1, RPLP0:HS00420695_gH), Taqma.n Gene Expression Master Mix (Life Technologies Japan Ltd.).
# Normal human epidermal keratinocytes (Life Technologies Japan Ltd.) were seeded into a 6-well plate so that the number of cells in each well was […] and cultured in HuMedia-KG2 (KURABO INDUSTRIES LTD.) overnight. Then, suiforaphane (Sigma-Aldrich) was exposed to the cells so that the final concentration was 0.1, 1, and 10 μM, and the cells were cultured for 48 hours. The cells after culture was washed with a phosphate buffer (D-PBS (−)) and RNA was extracted using RNeasy Mini Kits (QIAGEN) according to the manual attached. The RNA concentration was calculated by using NanoDrop 1000 (Thermo Fisher Scientific). Total RNA extracted was reverse-transcribed using High-Capacity RNA-to-cDNA Kit (Life Technologies Japan Ltd.), and then real-time PCR was performed using 7500 Fast Real-Time PCR System (Life Technologies Japan Ltd.). In the real-time PCR, the expression levels of the gene were compared by the ΔΔ CT method using the above reverse transcribed cDNA and carboxylesterase 1, or, as an endogenous control, Taqman primer for RPLP0 (Life Technologies Japan Ltd., CES1:Hs00275627-m1, RPLP0:HS00420895_gH), Taqman Gene Expression Master Mix (Life Technologies Japan Ltd.).
Structure (SMILES),sensory irritation score [1],amount of IL-1α in the medium [2],Relative gene expression level (with non treat as 1.0) (CES1; sulforaphane 0.1 μM),Relative gene expression level (with non treat as 1.0) (CES1; sulforaphane 1 μM),Relative gene expression level (with non treat as 1.0) (CES1; sulforaphane 10 μM),"expression level of CES1 mRNA (CES1; sulforaphane 0.1, 1 and 10 μM, summary of Table 1)"
"COC(=O)c1ccc(O)cc1 [MP, methyl p-hydroxybenzoate]",felt some irritation,–,–,–,–,–
"O=C(O)c1ccc(O)cc1 [PHBA, p-hydroxybenzoic acid]",very mild,much smaller than that when MP was used,–,–,–,–
"C[S+]([O-])CCCCN=C=S (stereo not shown) [Sulforaphane, 4-(methylsulfinyl)butyl isothiocyanate]",–,–,1.5 ± 0.33,3.6 ± 0.90,35 ± 8.4,increased the expression level of CES1 mRNA
